From US10183036B2, “Use of nicotinic acid riboside or nicotinamide riboside derivatives, and reduced derivatives thereof, as NAD+ increasing precursors” (Chromadex Inc., priority 2016, dated 2019)

Legend:
Hela cells = assay: NAD content in cultured Hela cells supplemented with NAD+ precursor (EnzyChrom NAD+/NADH assay kit); assay type: cell-based; settings: 100 μM precursor, 24 h at 37° C., control = 100.0; for activity at 100 µM: Homo sapiens
Experimental: Hela cells (passages 5-9) were grown in cell culture medium DMEM with 10% serum and were seeded in 6-well plates with a density of 3×10^5 cells per well containing 1 ml of culture medium overnight. The wells were aspirated, washed with PBS and 2 mL of fresh cell culture media was added. […] The media was aspirated and the wells washed with PBS, and for each condition 1×10^5 cells were isolated and analyzed using an ENZYCHROM™ NAD+/NADH ASSAY KIT (E2ND-100) following the manufacturer protocol (BioAssay Systems, Hayward, Calif.). This standard assay provides a quantitative colorimetric determination of NAD+/NADH at 565 nm.
Further, FIG. 9 presents the same data as a fold-increase in NAD over control. FIG. 8 presents a measurement of absolute NAD values (μM) in Hela cells (n=4) cultured in growth media supplemented with 100 μM of the corresponding NAD^+ precursor (nicotinyl riboside test compound) for 24 hours, versus control (NAD content in cells measured in the absence of treatment compound). A control value was determined for each replicate data set.

cells = settings: Kulikova et al. 2015; cited from earlier work
[1] = Stability in aqueous solution at various temperature and pH; assay type: physicochemical
Experimental: Nicotinamide riboside (NR) was prepared in 1000 ppm aqueous solution (w/v) at 2.5, 3.5 and 4.7 pH levels. Nicotinic acid riboside (NAR) was prepared n 1000 ppm aqueous solution (w/v) at 2.5, 3.5 and 6.2 pH levels. The six sample solutions were aliquoted into various small sealed vials to be used as individual sample pull points for analysis.

Compound	activity at 100 µM (Hela cells) [%]	also measured
CC(=O)OC[C@H]1O[C@@H]([n+]2cccc(C(=O)O)c2)[C@H](OC(C)=O)[C@@H]1OC(C)=O [NAR TA, 1-(2′,3′,5′-triacetyl-beta-D-ribofuranosyl)-nicotinic acid]	173	
O=C(O)c1ccc[n+]([C@@H]2O[C@H](CO)[C@H](O)[C@H]2O)c1 [NAR, Nicotinic acid riboside]	295	concentration that supports cell survival (cells): about 1 micromolar; assay (concentration remaining) after storage ([1]; 1000 ppm aqueous solution, 4° C., after 140 days): greater than 95%; stability in comparison to NR ([1]; aqueous solution, 4° C. and 25° C., all measured pH levels): much greater stability; stability over time in weeks ([1]; aqueous solution, higher temperature and lower pH): markedly decreased
O=C(O)C1=CN([C@@H]2O[C@H](CO)[C@@H](O)[C@H]2O)C=CC1 [NARH, 1-(beta-D-ribofuranosyl)-1,4-dihydronicotinic acid]	147	
CC(=O)OC[C@H]1O[C@@H]([n+]2cccc(C(N)=O)c2)[C@H](OC(C)=O)[C@@H]1OC(C)=O [NR TA, 1-(2′,3′,5′-triacetyl-beta-D-ribofuranosyl)-nicotinamide]	199	
NC(=O)c1ccc[n+]([C@@H]2O[C@H](CO)[C@@H](O)[C@H]2O)c1 [NR, Nicotinamide riboside]	141	amount required to maintain viability relative to NAR (cells): 10 times
CC(=O)OC[C@H]1O[C@@H](N2C=CCC(C(N)=O)=C2)[C@H](OC(C)=O)[C@@H]1OC(C)=O [NRH TA, 1-(2′,3′,5′-triacetyl-beta-D-ribofuranosyl)-1,4-dihydronicotinamide]	146	
CC(=O)O[C@@H]1[C@@H](COC(=O)c2cccnc2)OC(=O)[C@@H]1OC(C)=O [cyclic, 2′,3′-diacetyl-5′-nicotinoyl ribolactone]		NAD % vs control (Hela cells): 178.0%
